Patent publication US10407467B2, “Polymyxin derivatives and their use in combination therapy together with different antibiotics” (priority 2013, dated 2019)
Structures can show the parent of a compound that is named as a salt. Where two headings read alike, the source gives them in different places. Numbered stars: 1 amine (or outer) side, 2 acyl side, 3 side chain; on linkers, the order of the positions; unused ones are H or OH. Bridge positions count the residues as written; N and C are the ends. Square brackets hold non-standard residues; d marks the D form. Peptide text beside a SMILES is read from it. * marks the point of attachment. ξ: configuration not given here. ξβ3hPhg = O=C(CC(N[*:1])c1ccccc1)[*:2]; X6 = N[C@@H](CC(=O)*)c1ccc2ccccc2c1; ξβ3hGly(cHex) = NC(CC(=O)*)C1CCCCC1; X12 = CC(C)C[C@H](N)[C@H](O)C(=O)*; Thr(3ξ) = CC(O)[C@H](N)C(=O)O; Dab = NCC[C@H](N)C(=O)O; Dap = NC[C@H](N)C(=O)O

How the values were obtained:
HK-2 cell line = experiment: In vitro renal cell toxicity assay (resazurin reduction); format: cell-based, human
Escherichia coli [1] = experiment: MIC, compound in combination with a second agent (broth microdilution); format: cell-based; settings: 1:1 (wt:wt) combination with Rifampicin, MIC = total drug concentration; for MIC E. coli ATCC25922: strain ATCC25922
In short: (§1)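 Susceptibility was tested on up to four strains of each pathogen with the compound paired 1:1 by weight alongside another antibacterial. Values count both components together and use the lower duplicate if replicates agreed within 2-fold.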

Acinetobacter baumannii [2] = experiment: as above; format: cell-based; settings: 1:1 (wt:wt) combination with Rifampicin, MIC = total drug concentration; for MIC A. baumannii ATCC BAA-747: strain ATCC BAA-747; for MIC A. baumannii CCUG57249: strain CCUG57249; for MIC A. baumannii NCTC 13424: strain NCTC 13424; for MIC A. baumannii NCTC 13423: strain NCTC 13423
In short: as §1

Pseudomonas aeruginosa [3] = experiment: as above; format: cell-based; settings: 1:1 (wt:wt) combination with Rifampicin, MIC = total drug concentration; for MIC P. aeruginosa ATCC 27853: strain ATCC 27853; for MIC P. aeruginosa ATCC CRM-9027: strain ATCC CRM-9027; for MIC P. aeruginosa ATCC-47: strain ATCC-47; for MIC P. aeruginosa CCUG 59626: strain CCUG 59626
In short: as §1

Klebsiella pneumoniae [4] = experiment: as above; format: cell-based; settings: 1:1 (wt:wt) combination with Rifampicin, MIC = total drug concentration; for MIC K. pneumoniae ATCC-BAA-2146: strain ATCC-BAA-2146; for MIC K. pneumoniae CCUG-59348: strain CCUG-59348
In short: as §1

Escherichia coli [5] = experiment: MIC, sole activity (no second agent); format: cell-based; settings: in the absence of Rifampicin; for MIC E. coli ATCC25922: strain ATCC25922; for MIC E. coli NCTC9001: strain NCTC9001
In short: (§2)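 First, isolated colonies grown 18-24 hours on Mueller-Hinton agar were suspended to 0.5 McFarland; next, up to four strains per pathogen were tested in duplicate in cation-adjusted MHB; finally, the lower concordant value or modal repeat value was reported against Polymyxin B.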

Acinetobacter baumannii [6] = experiment: MIC, sole activity (no second agent); format: cell-based; settings: in the absence of Rifampicin; for MIC A. baumannii ATCC13424: strain ATCC13424; for MIC A. baumannii ATCCBAA-747: strain ATCCBAA-747; for MIC A. baumannii CCUG57249: strain CCUG 57249
In short: as §2

Pseudomonas aeruginosa [7] = experiment: MIC, sole activity (no second agent); format: cell-based; settings: in the absence of Rifampicin; for MIC P. aeruginosa ATCC 27853: strain ATCC27853; for MIC P. aeruginosa ATCC-47: strain ATCC-47; for MIC P. aeruginosa ATCCCRM-9027: strain ATCCCRM-9027; for MIC P. aeruginosa CCUG 59626: strain CCUG 59626
In short: as §2

Klebsiella pneumoniae [8] = experiment: MIC, sole activity (no second agent); format: cell-based; settings: in the absence of Rifampicin; for MIC K. pneumoniae ATCC-BAA2146: strain ATCC-BAA2146; for MIC K. pneumoniae CCUG-59348: strain CCUG-59348
In short: as §2

P. aeruginosa ATCC 27853 = settings: for effect on thigh burdens: 2 mg/kg IV three times at 1, 3.5 and 6 hours post infection; for reduction of thigh burdens: 4 mg/kg IV three times at 1, 3.5 and 6 hours post infection; for Log reduction from vehicle (CFU/g): ATCC 27853, in vivo, iv

| SMILES | HK-2 IC50 rel to PMB (HK-2 cell line) | MIC E. coli ATCC25922 (Escherichia coli [1]) [micrograms/mL] | MIC A. baumannii ATCC BAA-747 (Acinetobacter baumannii [2]) [micrograms/mL] | MIC A. baumannii CCUG57249 (Acinetobacter baumannii [2]) [micrograms/mL] | MIC A. baumannii NCTC 13424 (Acinetobacter baumannii [2]) [micrograms/mL] | MIC P. aeruginosa ATCC 27853 (Pseudomonas aeruginosa [3]) [micrograms/mL] | MIC P. aeruginosa ATCC CRM-9027 (Pseudomonas aeruginosa [3]) [micrograms/mL] | MIC P. aeruginosa ATCC-47 (Pseudomonas aeruginosa [3]) [micrograms/mL] | MIC P. aeruginosa CCUG 59626 (Pseudomonas aeruginosa [3]) [micrograms/mL] | MIC K. pneumoniae ATCC-BAA-2146 (Klebsiella pneumoniae [4]) [micrograms/mL] | MIC K. pneumoniae CCUG-59348 (Klebsiella pneumoniae [4]) [micrograms/mL] | MIC E. coli ATCC25922 (Escherichia coli [5]) [micrograms/mL] | MIC E. coli NCTC9001 (Escherichia coli [5]) [micrograms/mL] | MIC A. baumannii ATCC13424 (Acinetobacter baumannii [6]) [micrograms/mL] | MIC A. baumannii ATCCBAA-747 (Acinetobacter baumannii [6]) [micrograms/mL] | MIC A. baumannii CCUG57249 (Acinetobacter baumannii [6]) [micrograms/mL] | MIC P. aeruginosa ATCC-47 (Pseudomonas aeruginosa [7]) [micrograms/mL] | MIC P. aeruginosa CCUG 59626 (Pseudomonas aeruginosa [7]) [micrograms/mL] | MIC K. pneumoniae ATCC-BAA2146 (Klebsiella pneumoniae [8]) [micrograms/mL] | MIC K. pneumoniae CCUG-59348 (Klebsiella pneumoniae [8]) [micrograms/mL] | also measured |
| --- | --- | --- | --- | --- | --- | --- | --- | --- | --- | --- | --- | --- | --- | --- | --- | --- | --- | --- | --- | --- | --- |
| CC(C)C[C@@H]1NC(=O)[C@@H](Cc2ccccc2)NC(=O)[C@H](CCN)NC(=O)[C@@H](NC(=O)[C@H](CN)NC(=O)[C@@H](NC(=O)[C@H](CCN)NC(=O)[C@@H](O)[C@@H](N)CC(C)C)C(C)O)CCNC(=O)[C@H](C(C)O)NC(=O)[C@H](CCN)NC(=O)[C@H](CCN)NC1=O (stereo partly drawn) [Example A17, [(2S,3S)-3-Amino-2-hydroxy-5-methylhexanoyl]-L-Dab-L-Thr-L-Dap polymyxin B heptapeptide] (X12-[Dab][Thr(3ξ)][Dap][Dab][Dab][dF]L[Dab][Dab][Thr(3ξ)]; lactam 4-C) | 5.5 | – | – | – | – | – | – | – | – | – | – | – | – | – | – | – | – | – | – | – | – |
| CC(C)C[C@@H]1NC(=O)[C@@H](Cc2ccccc2)NC(=O)[C@H](CCN)NC(=O)[C@@H](NC(=O)[C@H](CCN)NC(=O)[C@@H](NC(=O)[C@H](CN)NC(=O)CC(N)C2CCCCC2)C(C)O)CCNC(=O)[C@H](C(C)O)NC(=O)[C@H](CCN)NC(=O)[C@H](CCN)NC1=O (stereo partly drawn) [Example A6, [3(R,S)-3-Amino-3-cyclohexanepropanoyl]-L-Dap-polymyxin B nonapeptide] ({ξβ3hGly(cHex)}-[Dap][Thr(3ξ)][Dab][Dab][Dab][dF]L[Dab][Dab][Thr(3ξ)]; lactam 4-C) | 3 | – | – | – | – | – | – | – | – | – | – | – | – | – | – | – | – | – | – | – | – |
| CC(C)C[C@@H]1NC(=O)[C@@H](Cc2ccccc2)NC(=O)[C@H](CCN)NC(=O)[C@@H](NC(=O)[C@H](CCN)NC(=O)[C@@H](NC(=O)C[C@H](N)c2ccc3ccccc3c2)C(C)O)CCNC(=O)[C@H](C(C)O)NC(=O)[C@H](CCN)NC(=O)[C@H](CCN)NC1=O (stereo partly drawn) [Example 38, (S)-3-Amino-3-(naphthalene-2-yl)propanoyl polymyxin B nonapeptide, trifluoroacetate salt] (X6-[Thr(3ξ)][Dab][Dab][Dab][dF]L[Dab][Dab][Thr(3ξ)]; lactam 3-C) | – | 0.5 | 0.25 | 0.25 | 0.25 | 0.25 | 0.5 | 0.25 | 0.5 | 0.5 | 2 | 4 | 8 | 1 | 0.5 | 4 | 0.25 | 0.125 | 8 | >32 | MIC P. aeruginosa ATCC 27853 (Pseudomonas aeruginosa [7]): 0.25 micrograms/mL; MIC P. aeruginosa ATCCCRM-9027 (Pseudomonas aeruginosa [7]): 0.25 micrograms/mL; effect on thigh burdens (P. aeruginosa ATCC 27853): did not affect thigh burdens significantly; reduction of thigh burdens (P. aeruginosa ATCC 27853): 4.9 Log10 CFU/g; Log reduction from vehicle (CFU/g) (P. aeruginosa ATCC 27853; 2 mg/kg, 6 h): −0.37 log CFU/g; Log reduction from vehicle (CFU/g) (P. aeruginosa ATCC 27853; 4 mg/kg, 6 h): 4.94 log CFU/g |
| CC(C)C[C@@H]1NC(=O)[C@@H](Cc2ccccc2)NC(=O)[C@H](CCN)NC(=O)[C@@H](NC(=O)[C@H](CCN)NC(=O)[C@@H](NC(=O)CC(N)c2ccccc2)C(C)O)CCNC(=O)[C@H](C(C)O)NC(=O)[C@H](CCN)NC(=O)[C@H](CCN)NC1=O (stereo partly drawn) [Example 28, [3-(R,S)-3-Amino-3-phenylpropanoyl] Polymyxin B nonapeptide] (ξβ3hPhg-[Thr(3ξ)][Dab][Dab][Dab][dF]L[Dab][Dab][Thr(3ξ)]; lactam 3-C) | – | 0.125 | 0.125 | 0.125 | 0.125 | 0.125 | 0.5 | 0.5 | 0.25 | 0.5 | 2 | – | 32 | 1 | – | 1 | 1 | 0.5 | 32 | >32 | MIC A. baumannii NCTC 13423 (Acinetobacter baumannii [2]): ≤0.06 micrograms/mL; MIC K. pneumoniae NCTC 13438 (Klebsiella pneumoniae [4]; strain NCTC 13438): 0.25 micrograms/mL; MIC K. pneumoniae NCTC-13438 (Klebsiella pneumoniae [8]; strain NCTC-13438): 32 micrograms/mL; Log reduction from vehicle (CFU/g) (P. aeruginosa ATCC 27853; 2 mg/kg, 9 h): −0.38 log CFU/g; Log reduction from vehicle (CFU/g) (P. aeruginosa ATCC 27853; 4 mg/kg, 9 h): 0.20 log CFU/g |
| CC(C)C[C@@H]1NC(=O)[C@@H](Cc2ccccc2)NC(=O)[C@H](CCN)NC(=O)[C@@H](NC(=O)[C@H](CN)NC(=O)[C@@H](NC(=O)CC(N)C2CCCCC2)C(C)O)CCNC(=O)[C@H](C(C)O)NC(=O)[C@H](CCN)NC(=O)[C@H](CCN)NC1=O (stereo partly drawn) [Example 47, [3-Amino-3-cyclohexyl-propionyl]-L-Thr-L-Dap-polymyxin B heptapeptide, TFA salt] ({ξβ3hGly(cHex)}-[Thr(3ξ)][Dap][Dab][Dab][dF]L[Dab][Dab][Thr(3ξ)]; lactam 3-C) | – | ≤0.06 | ≤0.06 | ≤0.06 | 0.125 | 0.125 | 0.125 | 0.125 | 0.125 | 0.25 | – | 4 | 4 | 1 | 0.5 | 0.25 | 0.25 | 0.125 | 0.5 | >32 | MIC E. coli NCTC9001 (Escherichia coli [1]; strain NCTC9001): 0.125 micrograms/mL; MIC A. baumannii NCTC 13423 (Acinetobacter baumannii [2]): 0.125 micrograms/mL; MIC K. pneumoniae ATCC 4352 (Klebsiella pneumoniae [4]; strain ATCC 4352): 0.125 micrograms/mL; MIC A. baumannii NCTC 13423 (Acinetobacter baumannii [6]; strain NCTC13423): 0.5 micrograms/mL; MIC P. aeruginosa ATCC 27853 (Pseudomonas aeruginosa [7]): ≤0.06 micrograms/mL; MIC P. aeruginosa ATCCCRM-9027 (Pseudomonas aeruginosa [7]): ≤0.06 micrograms/mL; MIC K. pneumoniae ATCC 4352 (Klebsiella pneumoniae [8]; strain ATCC 4352): 0.5 micrograms/mL; effect on thigh burdens (P. aeruginosa ATCC 27853): did not affect thigh burdens significantly; reduction of thigh burdens (P. aeruginosa ATCC 27853): 1.1 Log10 CFU/g; Log reduction from vehicle (CFU/g) (P. aeruginosa ATCC 27853; 2 mg/kg, 6 h): −0.09 log CFU/g; Log reduction from vehicle (CFU/g) (P. aeruginosa ATCC 27853; 4 mg/kg, 6 h): 1.07 log CFU/g |
